Series [1] concerns the target mushroom tyrosinase (Agaricus bisporus, UniProt C7FF04). The experiment in a line: Kinetic analysis of the inhibition of tyrosinase (Lineweaver–Burk plots). It is filed as biochemical. The conditions noted are these: inhibitor 0.05 and 0.1 mM, L-DOPA 0.1–0.25 mM. On the procedure:
Based on the Lineweaver–Burk double reciprocal plots, the inhibition mode for the three investigated compounds was established as mixed-type inhibition, i.e., the type of enzyme inhibition in which the inhibitor may bind to the enzyme regardless of whether or not the enzyme has already bound the substrate. […].
A series of experiments were performed to determine the inhibition kinetics of tested carbazoles by following the already reported method. The inhibitor concentrations for tested carbazoles were 0.05 and 0.1 mM. Substrate L-DOPA concentration was between 0.1 and 0.25 mM in all kinetic studies. Maximal initial velocity was determined from the initial linear portion of absorbance up to ten minutes after addition of enzyme. The inhibition type of the enzyme, Michaelis constant (Km) and maximal velicity (Vmax), were determined by Lineweaver–Burk plots of inverse of velocities (1/V) versus inverse of substrate concentration 1/[L-DOPA] mM^−1.

Series [2] is described as follows: Thermogravimetric analysis (thermal stability). The conditions noted are these: TGA, 15 °C/min under nitrogen. The series is classed as physicochemical. On the procedure: Thermogravimetric analysis (TGA) allowed obtaining of thermal stability results for the presented compounds (K1–K3). For all derivatives, the temperature of 5% (T5) and 10% (T10) mass loss as well as the temperature of complete decomposition (Tmax) were determined. Referring to the T5 for K1–K3, we can see that it is in the range of 222 °C to 244 °C. Such high values indicate the high durability of these compounds. Moreover, the functional group in the substituent has a negligible effect on thermal stability. The best thermal properties are those of K3 compound, containing the 4-nitrophenyl group. In the case of replacing this group with benzonitrile (K2), we observe a slight decrease in T5 (by 13 °C), T10 (by 19 °C), and only one stage of Tmax degradation. On the other hand, compound K1 has the lowest T5 (222 °C). It is most likely due to the aliphatic nature of the substituent. Comparing the discussed derivatives (K1–K3) to their analogs described in the literature, we can see a significant similarity in thermal properties, despite different functional groups in the substituents.
Thermogravimetric analysis was performed on Perkin Elmer Thermogravimetric Analyzer Pyris 1 TGA at a heating rate of 15 °C/min under nitrogen. The electronic spectra were measured on a ThermoScientific Evolution 220 UV/Vis spectrometer. Photoluminescence emission spectra were acquired using Hitachi Fluorescence Spectrophotometer F-7100 [19].

A short description of series [3]: Dissolution in solvents for absorption/emission studies. The series is classed as physicochemical. The conditions noted are these: non-polar toluene. The protocol:
Absorption and emission studies were carried out for investigated compounds K1–K3 using solvents of different polarities. The presented molecules differ in the substituent in thiazole ring. To check the influence of the substituent in the discussed molecules, the tests were carried out on solutions with a concentration of 2.5 × 10^−5 mol/L. In the first step, absorption maxima (λabs) were determined. The measured data are shown in Table 3, Figure 3, Figures S1 and S2.
Each of the derivatives has at least two bands registered in the absorption spectra. The main bands between 320 and 370 nm can be attributed to the π→π* transition. The next one is the band […] 300 nm. In the case of the presented molecules, the solvatochromic effect associated with the polarity of the solvent is not observed in the absorption spectra. The same behavior is shown by the analogs described in the literature. In the next step, the emission maxima were determined. For the K3 molecule, spectra were recorded only in chloroform, ethanol, and DMSO. […] For the rest, λem was successfully determined in several solvents. By analyzing the fluorescence spectra, the influence of the polarity of the solvent on the obtained results can be observed. […] Moreover, the Stokes shift increases from non-polar to polar solvents (K3 30 nm, K1 69 nm, K2 70 nm). […]

Consider 3 compounds from publication PMC12386811, “Novel Carbazole–Thiazole Conjugates: Synthesis and Biophysical Characterization” (International Journal of Molecular Sciences, 2025).

Sequence of mushroom tyrosinase (C7FF04 1-392): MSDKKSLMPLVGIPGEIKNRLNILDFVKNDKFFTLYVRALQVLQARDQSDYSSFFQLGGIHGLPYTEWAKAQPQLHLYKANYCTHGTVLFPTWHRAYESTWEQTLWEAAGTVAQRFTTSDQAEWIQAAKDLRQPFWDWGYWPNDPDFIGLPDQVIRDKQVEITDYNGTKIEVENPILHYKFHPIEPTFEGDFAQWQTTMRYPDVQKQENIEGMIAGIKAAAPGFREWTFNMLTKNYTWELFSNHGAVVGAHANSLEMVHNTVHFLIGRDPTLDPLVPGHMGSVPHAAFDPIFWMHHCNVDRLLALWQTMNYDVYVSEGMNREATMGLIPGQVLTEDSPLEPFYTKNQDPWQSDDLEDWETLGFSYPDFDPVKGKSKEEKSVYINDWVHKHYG

What is called Vmax is the top rate of the reaction or transport when substrate is in excess. In the case of `C(=N\Nc1nc(C23CC4CC(CC(C4)C2)C3)cs1)/c1ccc(-n2c3ccccc3c3ccccc32)cc1` [K1, (E)-2-(2-(4-(9H-carbazol-9-yl)benzylidene)hydrazinyl)-4-(1-adamantyl)thiazole], in series [1], the “Inhibitory Mechanism” value is recorded as “Mixed” and the Vmax is on record as 0.2608 mM/min. In addition, in series [2], the “T5 (temperature at 5% weight loss)” value came to 222 °C and the “T10 (temperature at 10% weight loss)” value is 279 °C.
Consider `O=[N+]([O-])c1ccc(-c2csc(N/N=C/c3ccc(-n4c5ccccc5c5ccccc54)cc3)n2)cc1` [K3, (E)-2-(2-(4-(9H-carbazol-9-yl)benzylidene)hydrazinyl)-4-(4-nitrophenyl)thiazole], for which, in series [1], the “Inhibitory Mechanism” value is “Mixed” and the Vmax turned out to be 0.4718 mM/min. Further, the solubility in toluene entry in series [3] is listed as “did not dissolve”. Further, in series [2], the “T5 (temperature at 5% weight loss)” value came out at 244 °C and the “T10 (temperature at 10% weight loss)” value amounted to 271 °C.
With `N#Cc1ccc(-c2csc(N/N=C/c3ccc(-n4c5ccccc5c5ccccc54)cc3)n2)cc1` [K2, (E)-4-(2-(2-(4-(9H-carbazol-9-yl)benzylidene)hydrazinyl)thiazol-4-yl)benzonitrile], in series [1], the “Inhibitory Mechanism” value is “Mixed” and the maximum rate (Vmax) stood at 0.4078 mM/min. In series [2], the “T5 (temperature at 5% weight loss)” value was 231 °C and the “T10 (temperature at 10% weight loss)” value was determined as 252 °C.
